Source: patent US20250304535A1, “KAT6 Inhibitors” (BeiGene Switzerland GmbH, priority 2024, published 2025)

Tests used:
[1] = target: Recombinant human KAT6B protein (657-1069) (Homo sapiens (Human), UniProt Q8WYB5); experiment: KAT6B biochemical TR-FRET assay; conditions: histone H4 peptide 1000 nM, AcCoA 100 nM, enzyme 5 nM
[2] = tested on: histone H3K23 acetylation in U-2 OS cells; experiment: Histone H3 lysine 23 acetylation assay in U-2 OS cells (high content analysis); type: cell-based; conditions: 24 hrs exposure, H3K23ac level
How it was run: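 U-2 OS cells seeded overnight, then exposed 24 h to a 9-point compound dilution series; 0.1% DMSO medium as blank. Fixed, permeabilised, stained with anti-H3K23ac plus Alexa Fluor 647 secondary and DAPI; nuclear H3K23ac intensity read by high-content imaging. Inhibition = mean per-well cell intensity relative to on-plate blanks.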

[3] = target: Recombinant human KAT6A protein (497-780) (Homo sapiens (Human), UniProt Q92794); experiment: KAT6A biochemical TR-FRET assay; conditions: histone H4 peptide 2000 nM, AcCoA 300 nM, enzyme 5 nM
Sequence of Recombinant human KAT6A protein (497-780) (Q92794 497-780): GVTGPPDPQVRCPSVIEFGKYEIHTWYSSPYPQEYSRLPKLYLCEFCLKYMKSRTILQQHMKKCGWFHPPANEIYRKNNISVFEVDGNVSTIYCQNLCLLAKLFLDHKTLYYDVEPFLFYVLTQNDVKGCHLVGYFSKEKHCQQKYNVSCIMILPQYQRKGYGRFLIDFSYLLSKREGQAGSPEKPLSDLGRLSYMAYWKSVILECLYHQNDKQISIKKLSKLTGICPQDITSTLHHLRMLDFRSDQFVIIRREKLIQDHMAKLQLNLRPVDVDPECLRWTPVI

Sequence of Recombinant human KAT6B protein (657-1069) (Q8WYB5 657-1069): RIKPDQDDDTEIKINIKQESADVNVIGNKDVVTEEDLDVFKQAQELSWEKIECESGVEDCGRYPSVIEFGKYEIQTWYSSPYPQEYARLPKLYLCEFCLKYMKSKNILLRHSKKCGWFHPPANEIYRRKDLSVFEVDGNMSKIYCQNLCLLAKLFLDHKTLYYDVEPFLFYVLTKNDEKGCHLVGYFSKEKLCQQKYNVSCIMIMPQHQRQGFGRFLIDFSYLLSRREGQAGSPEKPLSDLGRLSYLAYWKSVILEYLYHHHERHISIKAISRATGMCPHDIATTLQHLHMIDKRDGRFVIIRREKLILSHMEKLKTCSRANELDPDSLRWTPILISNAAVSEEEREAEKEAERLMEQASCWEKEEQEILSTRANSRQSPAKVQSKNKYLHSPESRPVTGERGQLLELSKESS

| Structure (SMILES) | IC50 [1] [nM] | IC50 ([2]; Homo sapiens, U2OS) [nM] | IC50 [3] [nM] | IC50 [2] [nM] |
| --- | --- | --- | --- | --- |
| COc1ccc2c(c1S(=O)(=O)NC(=O)c1ccc(Cn3cccn3)c(OC)n1)OCC21CCOCC1 [Example C71, 5-((1H-pyrazol-1-yl)methyl)-6-methoxy-N-((6-methoxy-2′,3′,5′,6′-tetrahydro-2H-spiro[benzofuran-3,4′-pyran]-7-yl)sulfonyl) picolinamide] | ≤ 5 | ≤ 10 | ≤ 5 |  |
| COc1cnc(C(C)(C)C)cc1S(=O)(=O)NC(=O)c1ccc(Cn2cccn2)c(OC)n1 [Example C72, 5-((1H-pyrazol-1-yl)methyl)-N-((2-(tert-butyl)-5-methoxypyridin-4-yl)sulfonyl)-6-methoxy-picolinamide] | ≤ 5 | ≤ 10 | ≤ 5 |  |
| COc1ccc(C2(C)CC3(COC3)C2)cc1S(=O)(=O)NC(=O)c1ccc(Cn2cccn2)c(OC)n1 [Example C74, 5-((1H-pyrazol-1-yl)methyl)-6-methoxy-N-((2-methoxy-5-(6-methyl-2-oxaspiro[3.3]heptan-6-yl)phenyl)sulfonyl) picolinamide] | ≤ 5 | ≤ 10 | ≤ 5 |  |
| COc1ccc(C2(C)COC2)cc1S(=O)(=O)NC(=O)c1ccc(Cn2cccn2)c(OC)n1 [Example C75, 5-((1H-pyrazol-1-yl)methyl)-6-methoxy-N-((2-methoxy-5-(3-methyloxetan-3-yl)phenyl)sulfonyl) picolinamide] | ≤ 5 | ≤ 10 | ≤ 5 |  |
| COc1ccc2c(c1S(=O)(=O)NC(=O)c1ccc(Cn3cccn3)c(OC)n1)OC1CC2C1 [Example C78, 5-((1H-pyrazol-1-yl)methyl)-6-methoxy-N-((7-methoxy-3,4-dihydro-2H-2,4-methanochroman-8-yl)sulfonyl)picolinamide] | ≤ 5 |  | ≤ 5 | ≤ 10 |
| COc1ccc(C23CC(C2)C3)nc1S(=O)(=O)NC(=O)c1ccc(Cn2cccn2)c(OC)n1 [Example C79, 5-((1H-pyrazol-1-yl)methyl)-N-((6-(bicyclo[1.1.1]pentan-1-yl)-3-methoxypyridin-2-yl)sulfonyl)-6-methoxypicolinamide] | ≤ 5 | ≤ 10 | ≤ 5 |  |

Next, values leading:

| IC50 [1] [nM] | IC50 ([2]; Homo sapiens, U2OS) [nM] | IC50 [3] [nM] | IC50 [2] [nM] | Structure (SMILES) |
| --- | --- | --- | --- | --- |
| ≤ 5 | ≤ 10 | ≤ 5 |  | COc1ccc(C2(C)CCOCC2)cc1S(=O)(=O)NC(=O)c1ccc(Cn2cccn2)c(OC)n1 [Example C70, 5-((1H-pyrazol-1-yl)methyl)-6-methoxy-N-((2-methoxy-5-(4-methyltetrahydro-2H-pyran-4-yl)phenyl)sulfonyl) picolinamide] |
| ≤ 5 | ≤ 10 | ≤ 5 |  | COc1ccc(C2COCCN2C)cc1S(=O)(=O)NC(=O)c1ccc(Cn2cccn2)c(OC)n1 (stereo not drawn) [Example C73, 5-((1H-pyrazol-1-yl)methyl)-6-methoxy-N-((2-methoxy-5-(4-methylmorpholin-3-yl)phenyl)sulfonyl) picolinamide] |
| ≤ 5 | ≤ 10 | ≤ 5 |  | COc1ccc(C2(C)CCC2)cc1S(=O)(=O)NC(=O)c1ccc(Cn2cccn2)c(OC)n1 [Example C76, 5-((1H-pyrazol-1-yl)methyl)-6-methoxy-N-((2-methoxy-5-(1-methylcyclobutyl)phenyl)sulfonyl) picolinamide] |
| ≤ 5 | ≤ 10 | 5 to 50 |  | COc1ccc(C23COC(C2)C3)cc1S(=O)(=O)NC(=O)c1ccc(Cn2cccn2)c(OC)n1 [Example C77, 5-((1H-pyrazol-1-yl)methyl)-N-((5-(2-oxabicyclo[2.1.1]hexan-4-yl)-2-methoxyphenyl)sulfonyl)-6-methoxypicolinamide] |
